These results are taken from patent publication US20230165872A1, “COMBINATION OF BCMA-DIRECTED T CELL THERAPY AND AN IMMUNOMODULATORY COMPOUND” (Juno Therapeutics, Inc., priority 2020, published 2023).

One assay deals with PBMCs. Particulars: cultures of PBMCs; cited from earlier work.
The test system of assay [1] is RPMI-8226 target cells. As to the kind of experiment: Rescue: rechallenge of chronically stimulated anti-BCMA CAR T cells with RPMI-8226 in the presence of compound. The note with it: Example 4: Compound A 1 or 10 nM, Compound B 0.1 or 1 nM during re-challenge. It is filed as cell-based, human. As for the experimental part: Anti-BCMA CAR-expressing T cells, produced as described in Example 1, were stimulated with 50 μg BCMA conjugated beads (diameter about 4.5 μm from a 50 μg/ml BCMA-conjugated bead composition) substantially as described in Example 3 to induce chronic stimulation (to produce hypofunctional, exhausted T cells). After the chronic stimulation, the CAR-T cells were rechallenged with RPMI-8226 target cells (labeled with NucLightRed as described in Example 2) at a 1:1 (effector:target) ratio in the presence of (rescued) with Compound A (iberdomide, (S)-3-[4-(4-morpholin-4-ylmethyl-benzyloxy)-1-oxo-1,3-dihydro-isoindol-2-yl]-piperidine-2,6-dione) (1 nM or 10 nM), Compound B ((S)-4-(4-(4-(((2-(2,6-dioxopiperidin-3-yl)-1-oxoisoindolin-4-yl)oxy)methyl)benzyl)piperazin-1-yl)-3-fluorobenzonitrile) (0.1 nM or 1 nM), or DMSO vehicle control.
Killing activity and cytokine production were assessed as described in Example 3.
Studies were undertaken to determine whether Compound A (iberdomide, (S)-3-[4-(4-morpholin-4-ylmethyl-benzyloxy)-1-oxo-1,3-dihydro-isoindol-2-yl]-piperidine-2,6-dione) rescued anti-BCMA CAR T cell function following chronic stimulation. To directly stimulate via CAR engagement to induce chronic stimulation of cells, anti-BCMA CAR T cells were stimulated with BCMA conjugated beads (diameter about 4.5 μm from a 50 μg/ml BCMA-conjugated bead composition, generated as described in Example 9) at a ratio of T cells to beads of 1:1. The cells were then incubated at 37° C., 5% CO2 for 7 days.
Cultures were incubated at 37° C., 5% CO2, and images were taken every 2 hours over 5-7 days with an Essen IncuCyte Zoom live-cell analysis system to track NucLightRed-positive target cells.

Assay [2] deals with RPMI-8226 target cells. Briefly: Acute co-culture cytokine secretion of anti-BCMA CAR T cells with RPMI-8226. Format: cell-based, human. As for the experimental part: Anti-tumor effects of anti-BCMA CAR T cells, alone and in combination with cell immunomodulatory compounds Compound A (iberdomide, (S)-3-[4-(4-morpholin-4-ylmethyl-benzyloxy)-1-oxo-1,3-dihydro-isoindol-2-yl]-piperidine-2,6-dione) or Compound B ((S)-4-(4-(4-(((2-(2,6-dioxopiperidin-3-yl)-1-oxoisoindolin-4-yl)oxy)methyl)benzyl)piperazin-1-yl)-3-fluorobenzonitrile), were assessed in two different BCMA-expressing target multiple myeloma cell lines RPMI-8226 or OPM-2. Anti-BCMA CAR+ T cells were generated as described in Example 1.
The anti-BCMA CAR-expressing T cells were incubated with target cells, RPMI 8226 (BCMA^med human multiple myeloma cell line) or OPM2 cells (BCMA^med human multiple myeloma cell line) target cells, at an E:T ratio of 1:1. The co-culture incubation with target cells was carried out in the presence of Compound A (0.01 nM, 0.1 nM, 1 nM, 10 nM, 100 nM, 1000 nM, or 10,000 nM) or Compound B (0.01 nM, 0.1 nM, 1 nM, 10 nM, 100 nM, 1000 nM, or 10,000 nM).

A further assay relates to anti-BCMA CAR T cells. Briefly: Viability and count of anti-BCMA CAR T cells after 7-day chronic stimulation with BCMA-conjugated beads. Format: cell-based, human. As for the experimental part:
(§1) Cryofrozen anti-BCMA CAR T cells, produced substantially as described in Example 1 and formulated at a 1:1 ratio of CD4+ and CD8^+ T cells, were thawed. To subject cells to chronic stimulation conditions, the anti-BCMA CAR+ T cells were stimulated with 50 μg BCMA conjugated beads (diameter about 4.5 μm from a 50 μg/ml BCMA-conjugated bead composition, generated as described in Example 2) at a ratio of T cells to beads of 1:1 in the presence or absence of Compound A (iberdomide, (S)-3-[4-(4-morpholin-4-ylmethyl-benzyloxy)-1-oxo-1,3-dihydro-isoindol-2-yl]-piperidine-2,6-dione) (1 nM or 10 nM), Compound B ((S)-4-(4-(4-(((2-(2,6-dioxopiperidin-3-yl)-1-oxoisoindolin-4-yl)oxy)methyl)benzyl)piperazin-1-yl)-3-fluorobenzonitrile) (0.1 nM or 1 nM), or DMSO vehicle control. The cells were then incubated at 37° C., 5% CO2 for 7 days.
At day 7, anti-BCMA CAR cells of all the samples were counted using a cellometer machine and stained for flow cytometric analysis. Cells were stained with a viability dye and analyzed by flow cytometry. Viability and count of anti-BCMA CAR T cells was increased in the presence of Compound A or Compound B.
(§2) Cryofrozen anti-BCMA CAR T cells, produced substantially as described in Example 1 and formulated at a 1:1 ratio of CD4+ and CD8+ T cells, were thawed. […] The cells were then incubated at 37° C., 5% CO2 for 7 days.
At day 7, anti-BCMA CAR cells of all the samples were counted using a cellometer machine and stained for flow cytometric analysis. Cells were stained with a viability dye and analyzed by flow cytometry.

The test system of a further assay is Aiolos. Briefly: Intracellular Aiolos expression in BCMA-bead stimulated anti-BCMA CAR T cells (flow cytometry, MFI). It is filed as cell-based, human. The note with it: CD4+CAR+ or CD8+CAR+ cells; 24 or 72 hours; lenalidomide 1000 nM, Compound A 1, 10, 100 nM, Compound B 0.1, 1, 10 nM. As for the experimental part:
(§3) A BCMA-Fc fusion protein containing the extracellular domain of human BCMA and a human IgG1Fc was conjugated to beads by covalently coupling to the surface of commercially available tosyl-activated magnetic beads having a diameter of approximately […] (M-450 beads, ThermoFisher, Waltham Mass.) (see e.g. International published PCT App. No. WO2019/027850). Following incubation, anti-BCMA CAR-expressing T cells were stained with antibodies and analyzed by flow cytometry to assess intracellular levels of Ikaros and Aiolos in CD4+CAR+ or CD8+CAR+ cells, as measured by median fluorescence intensity (MFI). Median fluorescence intensity (MFI) values for Ikaros and Aiolos were normalized and calculated as a percentage relative to vehicle control.
Background: A flow cytometer gives signals particle by particle.

Another assay has as its system Ikaros. As to the kind of experiment: Intracellular Ikaros expression in BCMA-bead stimulated anti-BCMA CAR T cells (flow cytometry, MFI). It is filed as cell-based, human. As for the experimental part:
as §3

The test system of assay [3] is RPMI-8226 target cells. Briefly: Rechallenge with RPMI-8226 after concurrent compound treatment during chronic stimulation (cytolysis, cytokines). It is filed as cell-based, human. As for the experimental part:
as §1
CAR T cells that had been stimulated for 7 days with cultured with 50 μg BCMA-coated magnetic beads concurrently in the presence of the cell immunomodulatory compound were washed free of compound and cells were debeaded. The anti-BCMA CAR T cells that had been stimulated for 7 days with BCMA-conjugated beads in the presence of the compounds were co-cultured with RPMI-8226 target cells (labeled with NucLightRed as described in Example 2) at a 1:1 (effector:target) ratio. Killing activity was monitored over 200 hours by measuring NucLightRed (NLR)-positive target cells. The total cell number of NLR-expressing RPMI targets cells was determined by normalizing cell number over time to the number of cells at the initiation of the co-culture (t=0) for each respective condition.
For cytokine measurements, cell-free supernatants were collected from the cytolytic assay described above 24 hours after plating. Cytokine levels of IFNg, IL-2, and TNFalpha (TNFα) was measured in the supernatant.
as §2
Cytolytic activity was assessed using OPM-2 and RPMI-8226 BCMA expressing target cells transduced with NucLight Red, a red fluorescent protein detectable by microscopy, to allow for measurement of target cell death. Anti-BCMA CAR T cells that had been stimulated for 7 days with BCMA-conjugated beads in the presence of the compounds were co-cultured with RPMI-8226 target cells at a 0.3:1 (effector:target) or 1:1 ratio. Cultures were incubated at 37° C., 5% CO2, and images were taken every 2 hours over 5-7 days with an Essen IncuCyte Zoom live-cell analysis system to track NucLightRed-positive target cells.
For cytokine measurements, cell-free supernatants were collected from the cytolytic assay described above 24 hours after plating. Cytokine levels were measured using IFNg, IL-2, and TNFalpha Meso Scale Discovery cytokine kit (Mesoscale) according to manufacturer instructions. The data was analyzed using GraphPad Prism to calculate absolute changes in cytokine relative to the DMSO vehicle control.

The mark [4] stands for this setting: Example 3: day 7, Compound A 1 or 10 nM, Compound B 0.1 or 1 nM.
The mark [5] stands for this setting: Example 7: day 7, lenalidomide 1000 nM, Compound A 0.1, 1 or 10 nM, FIG. 8.

Consider `N#Cc1ccc(N2CCN(Cc3ccc(COc4cccc5c4CN([C@H]4CCC(=O)NC4=O)C5=O)cc3)CC2)c(F)c1` [Compound B, (S)-4-(4-(4-(((2-(2,6-dioxopiperidin-3-yl)-1-oxoisoindolin-4-yl)oxy)methyl)benzyl)piperazin-1-yl)-3-fluorobenzonitrile], for which, in the assay on PBMCs, the “activation of T cells” value is given as “activation of T cells”; the “loss of Aiolos and Ikaros” value was “induces loss of Aiolos and Ikaros”; the “production of IL-2 and IFN-γ” value is “increased production of IL-2 and IFN-γ”. In addition, the “rescue of chronically activated CAR T cells” value in the assay with RPMI-8226 target cells [1] is given as “able to rescue chronically activated CAR T cells to improve functionality”. Also, in the assay with RPMI-8226 target cells [2] (acute co-culture), the “concentration needed for effect on cytokine production, compared with Compound A” value is given as “enhanced effects at lower concentrations compared to Compound A”. In addition, in the assay with RPMI-8226 target cells [2] (similar studies, target cell line not stated), the “CAR T cell cytokine production” value was “increased”. In the assay with anti-BCMA CAR T cells (setting [4]), the “count of anti-BCMA CAR T cells” value is on record as “increased” and the “viability of anti-BCMA CAR T cells” value is given as “increased”. Further, the “intracellular Aiolos expression (MFI, percentage relative to vehicle control)” value in the assay with Aiolos was “concentration dependent decrease”. The “intracellular Ikaros expression (MFI, percentage relative to vehicle control)” value in the assay on Ikaros (CD4+CAR+ or CD8+CAR+ cells, 24 or 72 hours, lenalidomide 1000 nM, Compound A 1, 10, 100 nM, Compound B 0.1, 1, 10 nM) was “concentration dependent decrease”. In addition, the “potency in decreasing Ikaros and Aiolos expression, compared with lenalidomide” value in the assay on Ikaros (stimulated anti-BCMA CAR T cells) is reported as “more potent than lenalidomide”.
`Nc1cccc2c1CN(C1CCC(=O)NC1=O)C2=O` (centres unmarked) [lenalidomide, reference compound]: in the assay with anti-BCMA CAR T cells (setting [5]), the “count of anti-BCMA CAR T cells” value is recorded as “increased” and the “viability of anti-BCMA CAR T cells” value was “increased”. Moreover, the “cytolytic activity after long-term stimulation in the presence of compound” value with RPMI-8226 target cells [3] (Example 7: E:T 0.3:1, lenalidomide 1000 nM, Compound A 1 or 10 nM, FIG. 9A) is listed as “increased cytolytic activity”. Besides, the “production of IFN-gamma” value in the assay with RPMI-8226 target cells [3] (Example 7: supernatant at 24 hours, relative to DMSO, FIG. 9B) is recorded as “increased production”. For the same molecule, the “production of IL-2” value in the assay with RPMI-8226 target cells [3] (Example 7: supernatant at 24 hours, relative to DMSO, FIG. 9C) is listed as “increased production”. Moreover, the “production of TNF-alpha” value with RPMI-8226 target cells [3] (Example 7: supernatant at 24 hours, relative to DMSO, FIG. 9D) was “increased production”.
